In patent US20220220152A1, “BIVALENT ANTAGONISTS OF INHIBITORS OF APOPTOSIS PROTEINS” (Hepagene Therapeutics (HK) Limited, priority 2019, published 2022):

Assays:
XIAP-BIR3 = biological target: T1, XIAP-BIR3 (Homo sapiens, UniProt P98170); assay: XIAP-BIR3 fluorescence polarization binding assay; settings: FP, probe AbuRPFK-5FAM (SM5F) 5 nM, XIAP-BIR3 40 nM, 60 min at 25° C.
T1 construct: XIAP-BIR3; purchased Reaction Biology APT-11-374
Text: (§1) IAPs are one main cause of cancer development and may result from overexpression of anti-apoptotic proteins. This protocol establishes three binding assays for […] Bir3 domain, cIAP1 and cIAP2 using FP (fluorescence polariation) technology. The fluorescence probe used is a synthetic peptide conjugated to 5-carboxyfluorescein (AbuRPFK-5FAM). The fluorescence polarization value (mP) was detected by Envision, which was used to reflect the binding degree of protein and fluorescent marker.
(§2) • a. Prepare 100 times of the final cpd concentration in appropriate tube and transfer 5 uL cpd to 45 μL 1× reaction buffer with 10% DMSO • b. The final reference cpd concentration is 10000, 3333.3, 1111.1, 370.4, 123.4, 41.2, 13.7, 4.57, 1.52, 0.51, 0.17 and 0 nM. So the 100 times of the concentration is 1000, 333.3, 111.1, 37.04, 12.34, 4.12, […], 0.15, 0.05, 0.017 and 0 μM. The final test cpds concentration is 3333.3, 1111.1, 370.4, 123.4, 41.2, 13.7, 4.57, 1.52, 0.51, 0.17, 0.057 and 0 nM. So the 100 times of the concentration is 333.3, 111.1, 37.04, 12.34, 4.12, […], 0.15, 0.05, 0.017, 0.0057 and […] • c. Add 8 μL/well each dose enzyme to 384 wen microplate (ProxiPlate-384 F Plus, 6008260) using multichannel pipette, prepared in Table 3. • d. Centrifuge at 1000 rpm • e. Add 2 μL/well cpd to 384 well microplate (ProxiPlate-384 F Plus, 6008260) using multichannel pipette, prepared in step a). • f. Centrifuge at 1000 rpm RT, 15 min. • g Start the assay by adding 10 uL/well substrate (prepared in Table 4) to the same 384 wen microplate using multichannel pipette. • h. Centrifuge at 1000 rpm. • i. Cover the assay plate and incubate for 60 min at 25° C. • j. Read on Envision 2104 for mP and plot the IC50s with mP values. • k. Data analysis: IC50s were determined based on a non-linear regression analysis of data collected.

cIAP1-BIR3 = biological target: T2, cIAP1-BIR3 (Homo sapiens, UniProt Q13490); assay: cIAP1-BIR3 fluorescence polarization binding assay; settings: FP, probe AbuRPFK-5FAM (SM5F) 5 nM, cIAP1-BIR3 15 nM, 60 min at 25° C.
T2 construct: cIAP1-BIR3; purchased Reaction Biology APT-11-370
Text: as §1, §2

cIAP2-BIR3 = biological target: T3, cIAP2-BIR3 (Homo sapiens, UniProt Q13489); assay: cIAP2-BIR3 fluorescence polarization binding assay; settings: FP, probe AbuRPFK-5FAM (SM5F) 5 nM, cIAP2-BIR3 80 nM, 60 min at 25° C.
T3 construct: cIAP2-BIR3; purchased Reaction Biology APT-11-372
Text: as §1, §2

T3 sequence (Q13489 238-349 limits assumed): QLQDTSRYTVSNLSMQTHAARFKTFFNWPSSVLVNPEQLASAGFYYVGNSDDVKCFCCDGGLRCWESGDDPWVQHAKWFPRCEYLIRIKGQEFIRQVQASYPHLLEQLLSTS
T2 sequence (Q13490 253-363 limits assumed): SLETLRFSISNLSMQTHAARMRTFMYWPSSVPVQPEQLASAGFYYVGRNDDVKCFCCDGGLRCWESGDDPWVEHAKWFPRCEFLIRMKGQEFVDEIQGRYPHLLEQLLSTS
T1 sequence (P98170 241-356 limits assumed): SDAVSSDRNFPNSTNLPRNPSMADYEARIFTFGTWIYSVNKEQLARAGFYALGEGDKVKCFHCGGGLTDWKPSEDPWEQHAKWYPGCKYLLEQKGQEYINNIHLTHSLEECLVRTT

IC50 (XIAP-BIR3) | IC50 (cIAP1-BIR3) | IC50 (cIAP2-BIR3) | Compound
10 to 100 nM | 1 to 10 nM | 1 to 10 nM | CC[C@H](NC(=O)[C@H](C)NC)C(=O)N1CCC[C@H]1C(=O)N[C@@H]1CCCc2c(OCCCCCOc3cccc4c3CCC[C@H]4NC(=O)[C@@H]3CCCN3C(=O)[C@H](CC)NC(=O)[C@H](C)NC)cccc21 [Compound I-D, (2S)-1-[(2S)-2-[(2S)-2-(methylamino)propanamido]butanoyl]-N-[(1R)-5-[(5-[[(5R)-5-[(2S)-1-[(2S)-2-[(2S)-2-(methylamino)propanamido]butanoyl]pyrrolidine-2-amido]-5,6,7,8-tetrahydronaphthalen-1-yl]oxy]pentyl)oxy]-1,2,3,4-tetrahydronaphthalen-1-yl]pyrrolidine-2-carboxamide]
10 to 100 nM | 1 to 10 nM | 10 to 100 nM | CN[C@@H](C)C(=O)N[C@H](C(=O)N1CCC[C@H]1C(=O)N[C@@H]1CCOc2c(-c3cccc4c3OCC[C@H]4NC(=O)[C@@H]3CCCN3C(=O)[C@@H](NC(=O)[C@H](C)NC)C(C)C)cccc21)C(C)C [Compound V-C, (2S)-1-[(2S)-3-methyl-2-[(2S)-2-(methylamino)propanamido]butanoyl]-N-[(4R)-8-[(4R)-4-[(2S)-1-[(2S)-3-methyl-2-[(2S)-2-(methylamino)propanamido]butanoyl]pyrrolidine-2-amido]-3,4-dihydro-2H-1-benzopyran-8-yl]-3,4-dihydro-2H-1-benzopyran-4-yl]pyrrolidine-2-carboxamide]
1 to 10 nM | 1 to 10 nM | 1 to 10 nM | CN[C@@H](C)C(=O)N[C@H](C(=O)N1CCC[C@H]1C(=O)N[C@@H]1CCCc2c(-c3cccc4c3CCC[C@H]4NC(=O)[C@@H]3CCCN3C(=O)[C@@H](NC(=O)[C@H](C)NC)C3CCCCC3)cccc21)C1CCCCC1 [Compound V-N, (2S)-1-[(2S)-2-cyclohexyl-2-[(2S)-2-(methylamino)propanamido]acetyl]-N-[(1R)-5-[(5R)-5-[(2S)-1-[(2S)-2-cyclohexyl-2-[(2S)-2-(methylamino)propanamido]acetyl]pyrolidine-2-amido]-5,6,7,8-tetrahydronaphthalen-1-yl]-1,2,3,4-tetrahydronaphthalen-1-yl]pyrrolidine-2-carboxamide]
> 1000 nM | 10 to 100 nM | 100 to 1000 nM | CN[C@@H](C)C(=O)N[C@H](C(=O)N1CCC[C@@H]1C(=O)N[C@@H]1CCCc2ccc(-c3ccc(-c4ccc5c(c4)[C@H](NC(=O)[C@@H]4CCCN4C(=O)[C@@H](NC(=O)[C@H](C)NC)C4CCCCC4)CCC5)cc3)cc21)C1CCCCC1 [Compound III-M, (2S)-1-[(2S)-2-cyclohexyl-2-[(2S)-2-(methylamino)propanamido]acetyl]-N-[(1R)-7-[4-[(8R)-8-[(2R)-1-[(2S)-2-cyclohexyl-2-[(2S)-2-(methylamino)propanamido]acetyl]pyrrolidine-2-amido]-5,6,7,8-tetrahydronaphthalen-2-yl]phenyl]-1,2,3,4-tetrahydronaphthalen-1-yl]pyrrolidine-2-carboxamide]
100 to 1000 nM | 1 to 10 nM | 10 to 100 nM | CN[C@@H](C)C(=O)N[C@H](C(=O)N1CCC[C@H]1C(=O)N[C@@H]1CCCc2c(OCCN3CCN(CCOc4cccc5c4CCC[C@H]5NC(=O)[C@@H]4CCCN4C(=O)[C@@H](NC(=O)[C@H](C)NC)C4CCCCC4)CC3)cccc21)C1CCCCC1 [Compound IX, (2S)-1-[(2S)-2-cyclohexyl-2-[(2S)-2-(methylamino)propanamido]acetyl]-N-[(1R)-5-{2-[4-(2-{[(5R)-5-[(2S)-1-[(2S)-2-cyclohexyl-2-[(2S)-2-(methylamino)propanamido]acetyl]pyrolidine-2-amido]-5,6,7,8-tetrahydronaphthalen-1-yl]oxy}ethyl)piperazin-1-yl]ethoxy}-1,2,3,4-tetrahydmnaphthalen-1-yl]pyrrolidine-2-carboxamide]
1 to 10 nM | 1 to 10 nM | 1 to 10 nM | CN[C@@H](C)C(=O)N[C@@H](C)C(=O)N1CCC[C@H]1C(=O)N[C@@H]1CCCc2c(-c3cccc(-c4cccc5c4CCC[C@H]5NC(=O)[C@@H]4CCCN4C(=O)[C@H](C)NC(=O)[C@H](C)NC)c3)cccc21 [Compound III-C, (2S)-1-[(2S)-2-[(2S)-2-(methylamino)propanamido]propanoyl]-N-[(1R)-5-[3-[(5R)-5-[(2S)-1-[(2S)-2-[(2S)-2-(methylamino)propanamido]propanoyl]pyrrolidine-2-amido]-5,6,7,8-tetrahydmnaphthalen-1-yl]phenyl]-1,2,3,4-tetrahydmnaphthalen-1-yl]pyrrolidine-2-carboxamide]
10 to 100 nM | 1 to 10 nM | 10 to 100 nM | CN[C@@H](C)C(=O)N[C@H](C(=O)N1C[C@@H](O)C[C@H]1C(=O)N[C@@H]1CCCc2c(-c3cccc4c3CCC[C@H]4NC(=O)[C@@H]3C[C@H](O)CN3C(=O)[C@@H](NC(=O)[C@H](C)NC)C3CCCCC3)cccc21)C1CCCCC1 [Compound V-L, (2S,4S)-1-[(2S)-2-cyclohexyl-2-[(2S)-2-(methylamino)propanamido]acetyl]-N-[(5R,5′R)-5′-[(2S,4S)-1-[(2S)-2-cyclohexyl-2-[(2S)-2-(methylamino)propanamido]acetyl]-4-hydroxypyrrolidine-2-amido]-5H,5′H,6H,6′H,7H,7′H,8H,8′H-[1,1′-binaphthalen]-5-yl]-4-hydroxypyrrolidine-2-carboxamide]
10 to 100 nM | 1 to 10 nM | 10 to 100 nM | CN[C@@H](C)C(=O)N[C@H](C(=O)N1CCC[C@H]1C(=O)N[C@@H]1CCc2c(-c3cccc4c3CC[C@H]4NC(=O)[C@@H]3CCCN3C(=O)[C@@H](NC(=O)[C@H](C)NC)C3CCOCC3)cccc21)C1CCOCC1 [Compound V-R, (S)-1-((S)-2-((S)-2-(methylamino)propanamido)-2-(tetrahydro-2H-pyran-4-yl)acetyl)-N-((1R,1′R)-1′-((S)-1-((S)-2-((S)-2-(methylamino)propanamido)-2-(tetrahydro-2H-pyran-4-yl)acetyl)pyrrolidine-2-carboxamido)-2,2′,3,3′-tetrahydro-1H,1′H-[4,4′-biinden]-1-yl)pyrrolidine-2-carboxamide]
10 to 100 nM | 1 to 10 nM | 10 to 100 nM | CN[C@@H](C)C(=O)N[C@H](C(=O)N1CCC[C@H]1C(=O)N[C@@H]1CCCc2c(OC/C=C/COc3cccc4c3CCC[C@H]4NC(=O)[C@@H]3CCCN3C(=O)[C@@H](NC(=O)[C@H](C)NC)C3CCCCC3)cccc21)C1CCCCC1 [Compound IV-A, (2S)-1-[(2S)-2-Cyclohexyl-2-[(2S)-2-(methylamino)propanamido]acetyl]-N-[(1R)-5-[[(2E)-4-[[(5R)-5-[(2S)-1-[(2S)-2-cyclohexyl-2-[(2S)-2-(methylamino)propanamido]acetyl]pyrrolidine-2-amido]-5,6,7,8-tetrahydronaphthalen-1-yl]oxy]but-2-en-1-yl]oxy]-1,2,3,4-tetrahydronaphthalen-1-yl]pyrrolidine-2-carboxamide]
10 to 100 nM | 1 to 10 nM | 1 to 10 nM | CN[C@@H](C)C(=O)N[C@H](C(=O)N1CCC[C@H]1C(=O)N[C@@H]1CCCc2c(NC(=O)c3cccc4c3CCC[C@H]4NC(=O)[C@@H]3CCCN3C(=O)[C@@H](NC(=O)[C@H](C)NC)C3CCCCC3)cccc21)C1CCCCC1 [Compound VII, (S)-1-((S)-2-Cyclohexyl-2-((S)-2-(methylamino)propanamido)acetyl)-N—((R)-5-(((R)-5-((S)-1-((S)-2-cyclohexyl-2-((S)-2-(methylamino)propanamido)acetyl)pyrrolidine-2-carboxamido)-5,6,7,8-tetrahydronaphthalen-1-yl)carbamoyl)-1,2,3,4-tetrahydronaphthalen-1-yl)pyrrolidine-2-carboxamide]

Compound | IC50 (XIAP-BIR3) | IC50 (cIAP1-BIR3) | IC50 (cIAP2-BIR3)
(2S,4S)-1-((S)-2-cyclohexyl-2-((S)-2-(methylamino)propanamido)acetyl)-N—((R)-5-(2-(2-(((R)-5-((2S,4S)-1-((S)-2-cyclohexyl-2-((S)-2-(methylamino)propanamido)acetyl)-4-hydroxypyrrolidine-2-carboxamido)-5,6,7,8-tetrahydronaphthalen-1-yl)oxy)ethoxy) ethoxy)-1,2,3,4-tetrahydmnaphthalen-1-yl)-4-hydroxypyrrolidine-2-carboxamide Formic Acid [Compound II-C] | 10 to 100 nM | 1 to 10 nM | 10 to 100 nM
